From ChEMBL document CHEMBL3885881, “DrugMatrix”

Organism: Rattus norvegicus
Experiment: DrugMatrix - Regimen: Daily Repeat
Type: toxicity, organism-based, Sprague-Dawley
Set-up: regimen Daily Repeat, gender Male, age 6-8 weeks
Details: in vivo, po, route oral GAVAGE, vehicle .5 % CMC; for ABSOLUTE BASOPHIL / ABSOLUTE EOSINOPHIL / ABSOLUTE LYMPHOCYTE / ABSOLUTE MONOCYTE / ABSOLUTE SEGMENTED NEUTROPHIL / BASOPHIL / EOSINOPHIL / ERYTHROCYTE COUNT / HEMATOCRIT / HEMOGLOBIN / LEUKOCYTE COUNT / LYMPHOCYTE / MEAN CORPUSCULAR HEMOGLOBIN / MEAN CORPUSCULAR HEMOGLOBIN CONCENTRATION / MEAN CORPUSCULAR VOLUME / MONOCYTE / NEUTROPHIL / NUCLEATED RED BLOOD CELLS / PLATELET COUNT: tissue Blood; for ALANINE AMINOTRANSFERASE / ALBUMIN / ALKALINE PHOSPHATASE / ASPARTATE AMINOTRANSFERASE / BLOOD UREA NITROGEN / CARBON DIOXIDE / CHLORIDE / CHOLESTEROL / CREATINE PHOSPHOKINASE / CREATININE / GLUCOSE / LACTATE DEHYDROGENASE / LIPASE / PHOSPHORUS / POTASSIUM / SODIUM / TOTAL BILIRUBIN / TOTAL PROTEIN / URIC ACID: tissue Plasma
[1] = 16 mg/kg, 120 h, dose level Low, time 5 day
[2] = 94 mg/kg, 72 h, dose level High, time 3 day
[3] = 94 mg/kg, 120 h, dose level High, time 5 day

Compound: CCOC(=O)OC(C)OC1=C(C(=O)Nc2ccccn2)N(C)S(=O)(=O)c2ccccc21 (centres undefined) [AMPIROXICAM]
- ABSOLUTE BASOPHIL [1]: 0 CELLS/uL
- ABSOLUTE EOSINOPHIL [1]: 0 CELLS/uL
- ABSOLUTE LYMPHOCYTE [1]: 8819 CELLS/uL
- ABSOLUTE MONOCYTE [1]: 212 CELLS/uL
- ABSOLUTE SEGMENTED NEUTROPHIL [1]: 1469 CELLS/uL
- BASOPHIL [1]: 0%
- EOSINOPHIL [1]: 0%
- ERYTHROCYTE COUNT [1]: 5.59 x10E6/uL
- HEMATOCRIT [1]: 33.9%
- HEMOGLOBIN [1]: 12.8 G/DL
- LEUKOCYTE COUNT [1]: 10.5 x10E3/uL
- LYMPHOCYTE [1]: 84%
- MEAN CORPUSCULAR HEMOGLOBIN [1]: 22.9 pg
- MEAN CORPUSCULAR HEMOGLOBIN CONCENTRATION [1]: 37.77 G/DL
- MEAN CORPUSCULAR VOLUME [1]: 60.67 fL
- MONOCYTE [1]: 2.33%
- NEUTROPHIL [1]: 13.67%
- NUCLEATED RED BLOOD CELLS [1]: 0 /100WBC
- PLATELET COUNT [1]: 1100 x10E3/uL
- ALANINE AMINOTRANSFERASE [1]: 50.33 u/L
- ALBUMIN [1]: 4.2 G/DL
- ALKALINE PHOSPHATASE [1]: 430.67 u/L
- ASPARTATE AMINOTRANSFERASE [1]: 70.67 u/L
- BLOOD UREA NITROGEN [1]: 13.67 mg/dL
- CARBON DIOXIDE [1]: 26 mmol/L
- CHLORIDE [1]: 101.67 MEQ/L
- CHOLESTEROL [1]: 67.67 mg/dL
- CREATINE PHOSPHOKINASE [1]: 214.67 u/L
- CREATININE [1]: 0.26 mg/dL
- GLUCOSE [1]: 161.33 mg/dL
- LACTATE DEHYDROGENASE [1]: 71.67 u/L
- LIPASE [1]: 8.67 u/L
- PHOSPHORUS [1]: 11.93 mg/dL
- POTASSIUM [1]: 6.36 MEQ/L
- SODIUM [1]: 144.83 MEQ/L
- TOTAL BILIRUBIN [1]: 0.17 mg/dL
- TOTAL PROTEIN [1]: 6.1 G/DL
- URIC ACID [1]: 1.73 mg/dL
- ABSOLUTE BASOPHIL [2]: 0 CELLS/uL
- ABSOLUTE EOSINOPHIL [2]: 73 CELLS/uL
- ABSOLUTE LYMPHOCYTE [2]: 14276.67 CELLS/uL
- ABSOLUTE MONOCYTE [2]: 831.33 CELLS/uL
- ABSOLUTE SEGMENTED NEUTROPHIL [2]: 1685.67 CELLS/uL
- BASOPHIL [2]: 0%
- EOSINOPHIL [2]: 0.33%
- ERYTHROCYTE COUNT [2]: 4.7 x10E6/uL
- HEMATOCRIT [2]: 28.03%
- HEMOGLOBIN [2]: 11.03 G/DL
- LEUKOCYTE COUNT [2]: 16.87 x10E3/uL
- LYMPHOCYTE [2]: 85.33%
- MEAN CORPUSCULAR HEMOGLOBIN [2]: 23.5 pg
- MEAN CORPUSCULAR HEMOGLOBIN CONCENTRATION [2]: 39.33 G/DL
- MEAN CORPUSCULAR VOLUME [2]: 59.67 fL
- MONOCYTE [2]: 5%
- NEUTROPHIL [2]: 9.33%
- NUCLEATED RED BLOOD CELLS [2]: 0 /100WBC
- PLATELET COUNT [2]: 907 x10E3/uL
- ALANINE AMINOTRANSFERASE [2]: 30 u/L
- ALBUMIN [2]: 2.33 G/DL
- ALKALINE PHOSPHATASE [2]: 163.67 u/L
- ASPARTATE AMINOTRANSFERASE [2]: 53 u/L
- BLOOD UREA NITROGEN [2]: 10 mg/dL
- CARBON DIOXIDE [2]: 27.67 mmol/L
- CHLORIDE [2]: 103.67 MEQ/L
- CHOLESTEROL [2]: 107.67 mg/dL
- CREATINE PHOSPHOKINASE [2]: 224.33 u/L
- CREATININE [2]: 0.21 mg/dL
- GLUCOSE [2]: 142.33 mg/dL
- LACTATE DEHYDROGENASE [2]: 128 u/L
- LIPASE [2]: 11.33 u/L
- PHOSPHORUS [2]: 11.57 mg/dL
- POTASSIUM [2]: 6.23 MEQ/L
- SODIUM [2]: 144.1 MEQ/L
- TOTAL BILIRUBIN [2]: 0.13 mg/dL
- TOTAL PROTEIN [2]: 4.43 G/DL
- URIC ACID [2]: 1.57 mg/dL
- ABSOLUTE BASOPHIL [3]: 0 CELLS/uL
- ABSOLUTE EOSINOPHIL [3]: 0 CELLS/uL
- ABSOLUTE LYMPHOCYTE [3]: 17904 CELLS/uL
- ABSOLUTE MONOCYTE [3]: 540 CELLS/uL
- ABSOLUTE SEGMENTED NEUTROPHIL [3]: 3956 CELLS/uL
- BASOPHIL [3]: 0%
- EOSINOPHIL [3]: 0%
- ERYTHROCYTE COUNT [3]: 3.63 x10E6/uL
- HEMATOCRIT [3]: 21.55%
- HEMOGLOBIN [3]: 8.6 G/DL
- LEUKOCYTE COUNT [3]: 22.4 x10E3/uL
- LYMPHOCYTE [3]: 81%
- MEAN CORPUSCULAR HEMOGLOBIN [3]: 23.8 pg
- MEAN CORPUSCULAR HEMOGLOBIN CONCENTRATION [3]: 40.05 G/DL
- MEAN CORPUSCULAR VOLUME [3]: 59.25 fL
- MONOCYTE [3]: 2.5%
- NEUTROPHIL [3]: 16.5%
- NUCLEATED RED BLOOD CELLS [3]: 2.5 /100WBC
- PLATELET COUNT [3]: 1838 x10E3/uL
- ALANINE AMINOTRANSFERASE [3]: 30 u/L
- ALBUMIN [3]: 2.85 G/DL
- ALKALINE PHOSPHATASE [3]: 259 u/L
- ASPARTATE AMINOTRANSFERASE [3]: 60.5 u/L
- BLOOD UREA NITROGEN [3]: 13 mg/dL
- CARBON DIOXIDE [3]: 23.5 mmol/L
- CHLORIDE [3]: 104 MEQ/L
- CHOLESTEROL [3]: 67 mg/dL
- CREATINE PHOSPHOKINASE [3]: 290 u/L
- CREATININE [3]: 0.21 mg/dL
- GLUCOSE [3]: 136.5 mg/dL
- LACTATE DEHYDROGENASE [3]: 87 u/L
- LIPASE [3]: 9.5 u/L
- PHOSPHORUS [3]: 11.1 mg/dL
- POTASSIUM [3]: 6.99 MEQ/L
- SODIUM [3]: 141.6 MEQ/L
- TOTAL BILIRUBIN [3]: 0.1 mg/dL
- TOTAL PROTEIN [3]: 4.95 G/DL
- URIC ACID [3]: 1.75 mg/dL
